Values quoted from earlier work, collected in patent US5846971A, “Oral antifungal composition” (Schering Corporation, priority 1997, dated 1998).

Experiments:
Aspergillis = settings: in suspensions
Candida = settings: in suspensions
Cryptococcus = settings: in suspensions

In the case of `CC[C@@H]([C@H](C)O)n1ncn(-c2ccc(N3CCN(c4ccc(OC[C@@H]5CO[C@@](Cn6cncn6)(c6ccc(F)cc6F)C5)cc4)CC3)cc2)c1=O` [the antifungal compound, (-)-(2R-cis)-4-[4-[4-[4-[[-5-(2,4-difluorophenyl)-tetrahydro-5-(1H-1,2,4-triazol-1-ylmethyl)furan-3-yl]methoxy]phenyl]-1-piperazinyl]phenyl]-2,-4-dihydro-2-[(S)-1-ethyl-2(S)-hydroxypropyl]-3H-1,2,4-triazol-3-one], the antifungal activity (Aspergillis) is listed as “potent antifungal activity”, the antifungal activity (Candida) is listed as “potent antifungal activity” and the antifungal activity (Cryptococcus) is listed as “potent antifungal activity”. For the same compound, the water solubility was “extremely low water solubility”.
